Measurements published in PMC7555119, “Characterization of Novel Synthetic Polyphenols: Validation of Antioxidant and Vasculoprotective Activities” (Antioxidants, 2020).
Converted amounts (≈) assume the structure as drawn. “And” between values parts separate entries of the source, which are not always exact repeats. Identical values can stand only once. Like-named read-outs stand apart in the source and are kept apart here.

Experiments:
[1] = Oxygen radical absorbance capacity (ORAC) assay
Procedure: The ORAC assay was performed following Ou et al., as modified by Garcés-Rimón et al.. All samples and reagents were dissolved in phosphate buffer (75 mM; pH 7.4). […] The fluorescence was recorded at 40 °C every 55 s for 95 min using a fluorimeter (SpectraMax M2; Molecular Devices, California, USA), with excitation and emission wavelengths of 480 and 520 nm, respectively. All samples were tested in triplicate. ORAC values were expressed as μmol of Trolox equivalents (TE)/μmol of pure compound.

[2] = ABTS radical cation scavenging assay
Procedure: The 2,2′-azino-bis (3-ethylbenzothiazoline-6-sulfonic acid) diammonium salt (ABTS) assay was performed according to Re et al. and modified by Oki et al. for its use in microplates. Samples were diluted in methanol. An ABTS^•+ stock solution was prepared by adding 44 μL of potassium persulfate (140 mmol/L) to a 2.5 mL ABTS^•+ aqueous solution (7 mmol/L). The working solution of the radical ABTS^+ was prepared by diluting the stock solution 1:75 (v/v) in a sodium phosphate buffer (5 mmol/L, pH 7.4) to obtain an absorbance value of 0.7±0.02 at 734 nm. Samples (30 μL) were added to 270 μL of the working solution of ABTS^•+ in a microplate. Absorbance was measured at 734 nm and 30 °C for 20 min, every 5 min in a Synergy HT plate spectrophotometer (Biotek Instruments, Winoosky, VT, USA). A calibration curve was made with Trolox (20–250 μM). All samples were analyzed in triplicate. Results were expressed in μmol TE/μmol of pure compound, as for the ORAC assays.

[3] = DPPH free radical scavenging assay (RSA); conditions: for concentration down to which RSA ability is maintained independently of time: 10 min to 2 h; for RSA capacity fold higher compared to resveratrol: after 10 min, from IC50; for RSA percentage: highest concentration 2 mM, 10 min
Procedure: For the 2,2′-diphenylpicrylhydrazyl (DPPH) assay, antioxidant compounds were dissolved in ethanol with a stock concentration of 4 mM and stirred for 24 h. DPPH (Alfa Aesar) was also dissolved in ethanol at 0.127 mM. Different compound solutions were prepared by serial dilutions of each stock solution ([…]). […] Amounts of 80 µL of each solution and 80 µL of DPPH were added in a 96-well plate. The absorbance was measured at different times (10, 20 and 30 min and 1 and 2 h) by a Multi-Detection Microplate Reader Synergy HT (λMAX = 515 nm). Radical scavenging activity (RSA, %) was calculated using Equation (1) (1) RSA(%)=ADPPH−AEXTRACT/ADPPH·100 where AEXTRACT and ADPPH correspond to the absorbance of DPPH with and without the extracts, respectively. Eight replicates were used for each compound and results were expressed as mean value ± standard deviation. The RSA half-maximal inhibitory concentration (IC50) values were calculated from the relationship curve of RSA versus concentrations by a non-linear fit using the software GraphPad Prism 7.

[4] = Stability in aqueous media (H2O/acetonitrile 80:20, HPLC-MS); assay type: physicochemical; conditions: for stability in aqueous media: H2O/acetonitrile (80:20%), room temperature, checked for 60 days; for Aqueous Stability (%): remaining pure compound (HPLC) after two months at room temperature in aqueous solution (+20% acetonitrile)
From the text: The solutions were checked by HPLC-MS at regular intervals of time for 60 days. […] The rest of the compounds suffered progressive degradation, with complete disappearance from the solution after 10 or 20 days. The most unstable polyphenol derivatives were 4 and 10 (Figure S1), having both two p-dihydroxy substitutions in the phenyl rings, which points to the rapid and easy oxidation to the p-hydroquinone. From the four compounds with three phenyl rings, only one was stable in aqueous solution (17).

[5] = system: human dermal fibroblasts (HDF); experiment: Cell viability, AlamarBlue assay; assay type: cell-based; conditions: for IC50: 24 h, AlamarBlue, non-linear fit
Procedure: Cytotoxicity of selected antioxidant compounds was assessed using human dermal fibroblasts (HDF, Innoprot, P10856) and an AlamarBlue assay. Human fibroblasts were grown and maintained using Dulbecco’s Modified Eagle Medium high glucose (DMEM, Sigma Aldrich, D6171), supplemented with 10% Fetal Bovine Serum (FBS), 2% L-glutamine and 1% penicillin/streptomycin. Cells were incubated at 37 °C, 95% relative humidity and 5% CO2. Additionally, DMEM-high glucose, HEPES, no phenol red (Gibco, 2106329) was used to prepare the AlamarBlue solution. Stock solutions of the antioxidant compounds 3, 8, 15 and 17 were prepared in dimethyl sulfoxide (DMSO). Compound 7 was not soluble enough in DMSO to obtain a cell viability IC50 value. Serial dilutions of the antioxidant compounds were prepared using the previously mentioned stock solutions and DMEM. Final DMSO concentration was maintained lower than 1% v/v in the cell culture experiments. HDF were seeded at 9 × 10^4 cells/well in a 96-well plate and incubated for 24 h. The medium was replaced by the corresponding antioxidant solutions and incubated for an additional 24 h. Then, compounds were removed, cells were washed with Dulbecco’s Phosphate Buffered Saline (PBS, Sigma Aldrich) and treated with a 10% v/v AlamarBlue (Invitrogen) solution prepared in DMEM without phenol red. After 3 h of incubation, absorbance was monitored at 570 nm by a Multi-Detection Microplate Reader Synergy HT. Cells treated with DMEM without any antioxidant compound were used as the 100% viability control. Eight replicates were used for each antioxidant solution. IC50 values were obtained by a non-linear fit using the software GraphPad Prism 7.

[6] = system: NADPH oxidase activity in human microvascular endothelial cells (HMEC-1); experiment: NADPH oxidase activity in endothelial cells stimulated with Angiotensin II; assay type: cell-based; conditions: HMEC-1, AngII 1 nmol/L 6 h, compound added 30 min before
Procedure: The human microvascular endothelial cells line (HMEC-1) (ATCC®, Middlesex, UK; CRL-3243™) was used. Cells were cultured according to the manufacturer instructions with MCDB131 medium (Corning, NY, USA, Cat. No. 702564) supplemented with 10 ng/mL epidermal growth factor (Sigma-Aldrich, Alcobendas, Spain), 1 μg/mL hydrocortisone (Sigma-Aldrich), 10 mmol/L glutamine (Sigma-Aldrich), 10% fetal bovine serum (FBS, Sigma-Aldrich), 100 U/mL of penicillin and 100 µg/mL of streptomycin. At 80% confluence, cells were serum-deprived for 24 h before stimulation. HMEC were treated with AngII (1 nmol/L for 6 h; Sigma-Aldrich) in the absence or in the presence of the different compounds that were added 30 min before stimulation.
(§1) The O2 production generated by NADPH oxidase was determined by a chemiluminescence assay. Briefly, endothelial cells or aortic segments were homogenized in phosphate buffer (50 mmol/L KH2PO4, 1 mmol/L EGTA, 150 mmol/L sucrose, pH 7.4). The reaction was started by the addition of a lucigenin (5 μmol/L) and NADPH (100 μmol/L; Sigma-Aldrich) mixture to the protein sample in a final volume of 250 μL. Chemiluminescence was determined every 2.4 s for 3 min in a microtiter plate luminometer (Enspire Perkin Elmer). Basal activity in the absence of NADPH was subtracted from each reading and normalized to protein concentration. Data were normalized vs. control situation.

[7] = system: NADPH oxidase activity in segments of aorta from C57BL6/J mice; experiment: NADPH oxidase activity in aortic segments stimulated ex vivo with IL-1β; conditions: IL-1β 10 ng/mL 6 h
Procedure: Aortic segments from three-month-old C57BL6/J mice were incubated with IL-1β (10 ng/mL, 6 h, Sigma Aldrich) in the presence and in the absence of the different compounds that were added 30 min before stimulation.
as §1

[8] = Aqueous thermodynamic solubility in H2O (UV); assay type: physicochemical; conditions: water, thermodynamic from solid
From the text: 4) Log P and aqueous solubility of selected compounds.
Table S2. Theoretical Log P values and aqueous thermodynamic solubility measured for
Comp `Chemical Structure MW LogP Calc Aqueous Solubility a
a Thermodynamic solubility in H 2O (UV). […]

[9] = system: Saccharomyces cerevisiae strain BY4741; experiment: In vivo antioxidant capacity in stressed yeasts (growth recovery, survivors); assay type: cell-based
Procedure: Saccharomyces cerevisiae haploid strain BY4741 was used as described previously. Briefly, 20 μL of glycerol stock culture was revived in 5ml of YPD medium (1% yeast extract, 2% bacteriological peptone and 2% dextrose) at 28 °C, with shaking (210 rpm). Fifty microliters of 20-h-old culture was used to inoculate fresh 5ml YPD (control medium) or 5 mL of oxidative stress medium (YPOxD: YPOxD; 1% yeast extract, 2% bacteriological peptone, 1% dextrose and 3% H2O2). Stress (and control) was conducted during 16h at 28 °C, with shaking (220 rpm).
Growth rate was determined from growth kinetics using the BioScreen C plate-reader system (OY Growth Curves Ab Ldt., Helsinki, Finland). Stressed yeast cultures (16 h old) were used to inoculate 200 µl of fresh media to an initial OD595 of 0.05–0.07, being distributed in 100-well honeycomb plates (Oy Growth Curves) in triplicate per each condition (each different dose of each compound). Plates were then incubated at 28 °C for 72h, with shaking (High force), taking OD measurement each 15 min in the Bioscreen C. Maximum growth rate (μmax) and biomass production (carrying capacity) were determined in R using ‘Growthcurver’ package version 0.3 [24]. Growth curves were constructed in EXCEL, represented as mean ± SEM (standard error of mean). […] In addition, to measure survival after oxidative stress and antioxidant effectiveness of each compound, yeast cells from each challenge were serially diluted in 96-well plates, and each dilution was spotted (with a 8 × 6 stainless steel replica platter from SIGMA) in triplicate to determine viable colonies after 24–48 h at 28 °C. Survivors (mean ± SEM) were compared between treatments with one-way ANOVA, Fisher’s LSD test, with alpha at 0.05 for significance.

[10] = compound needed to reach 50% RSA after 10 min, read-out: DPPH PSA IC50 10 min
[11] = read-out: DPPH PSA IC50 2 h, compound needed to reach 50% RSA after 2 h

SMILES	ORAC [1]	ORAC ([1]; TE: Trolox Equivalents) [TE]	ABTS [2]	ABTS (values in text) [2] [TE]	concentration down to which RSA ability is maintained independently of time [3] [mM]	RSA capacity fold higher compared to resveratrol [3] [fold]	IC50 [3, 10] [µM]	RSA percentage [3] [%]	IC50 [3, 11] [µM]	stability in aqueous media [4]	Aqueous Stability (%) [4] [%]	IC50 [5]	IC50 ([5]; Homo sapiens, Fibroblast) [µM]	effect on NADPH oxidase activity induced by Angiotensin II [6]	effect on NADPH oxidase activity induced by IL-1β [7]	solubility [8] [µg/mL]	melting point	other results
O=C(Cc1cc(O)ccc1O)Nc1ccc(O)cc1 [Compound 3, 2-(2′,5′-Dihydroxyphenyl)-N-(4-hydroxyphenyl)acetamide]	19.2 ± 0.2 µmol of trolox/µmol of pure compound	> 19	3.27 ± 0.1 µmol of trolox/µmol of pure compound	3.2	0.031	8	8.3	~78	6.77	sufficiently stable	77	246 µM and 240 µM	246	decreasing NADPH oxidase activity levels in the same order as resveratrol	significant inhibition of the IL-1β effects	1300 ± 100 (≈ 5.01 mM)	185 to 187 °C (dec.)	RSA ([3]; 0.031 mM, maintained from 10 min to 2 h): 78%; cell viability IC50 fold lower than compounds 17 and 8 [5]: 5–7 fold
O=C(Cc1ccc(O)c(O)c1)Nc1ccc(O)cc1 [Compound 7, 2-(3′,4′-Dihydroxyphenyl)-N-(4-hydroxyphenyl)acetamide]	19.2 ± 0.4 µmol of trolox/µmol of pure compound and 19.2 ± 0. µmol of trolox/µmol of pure compound	> 19	8.12 ± 0.09 µmol of trolox/µmol of pure compound	8.1	0.063	2.8	24.1	82	23.3	sufficiently stable	90	–	–	decreasing NADPH oxidase activity levels in the same order as resveratrol	significant inhibition of the IL-1β effects	3100 ± 100 (≈ 12 mM)	192 to 194 °C	cytotoxic effects ([5]; range where soluble in DMSO (up to 6 mM)): did not show any significant cytotoxic effects
O=C(Cc1ccc(O)cc1O)Nc1ccc(O)cc1 [Compound 8, 2-(2′,4′-Dihydroxyphenyl)-N-(4-hydroxyphenyl)acetamide]	19.3 ± 0.5 µmol of trolox/µmol of pure compound	> 19	5.00 ± 0.09 µmol of trolox/µmol of pure compound	–	–	–	151	67	64.2	sufficiently stable	98	> 1400 µM	1410	–	–	4100 ± 100 (≈ 15.8 mM)	186 to 189 °C	growth rate (r) recovery of stressed yeast ([9]; H2O2-stressed BY4741, doses 2, 20 and 40 μg): dose-related antioxidant effect; carrying capacity (k) recovery of stressed yeast ([9]; H2O2-stressed BY4741, each dose tested): able to recover the carrying capacity of yeast cells similarly as control antioxidants
